A short description of data set [1]: in vivo. On the set-up: species or system male C57Bl/6J mice. Conditions: male, C57Bl/6J, mouse, ip, 30 mg/kg. The procedure: Groups of 18 male C57Bl/6J mice (weighing between 22.7 and 27.3 g) received a single administration of test compound (30 mg/kg; i.p.) in methylcellulose (0.5% w/v) at a nominal concentration of […].
Three mice from each dose group were subject to cardiac puncture under general anesthesia at 0.25, 0.50, 1.00, 1.50, 2.00 and 4.00 hours post-dose and plasma samples generated for application of standard LC-MS/MS bioanalytical methods.
Quantitation of compound concentration was derived from reference calibration data. Pharmacokinetic data were derived from serial plasma concentrations.

Data set [2] has as its system TNF-α. As to the kind of experiment: LPS-induced cytokine release from human PBMCs: TNF-α. It is filed as cell-based. Here is the method: (§1) Data were tested for normality.
The test system of data set [3] is IL-10. Description: LPS-induced cytokine release from human PBMCs: IL-10. Type of data set: cell-based. Conditions: high concentration (10.0 μM). The procedure:
as §1

Data set [4] has as its system IL-1β. As to the kind of experiment: LPS-induced cytokine release from human PBMCs: IL-1β. It is filed as cell-based. The conditions noted are these: high concentration (10.0 μM). Here is the method:
as §1

The target in data set [5] is human serotonin transporter (Homo sapiens, UniProt P31645). Conditions: for inhibition: 10 µM.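 For all read-outs here: Read-out: uptake of tritium-labelled serotonin, measured by scintillation counting.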
human serotonin transporter, sequence (P31645 whole entry): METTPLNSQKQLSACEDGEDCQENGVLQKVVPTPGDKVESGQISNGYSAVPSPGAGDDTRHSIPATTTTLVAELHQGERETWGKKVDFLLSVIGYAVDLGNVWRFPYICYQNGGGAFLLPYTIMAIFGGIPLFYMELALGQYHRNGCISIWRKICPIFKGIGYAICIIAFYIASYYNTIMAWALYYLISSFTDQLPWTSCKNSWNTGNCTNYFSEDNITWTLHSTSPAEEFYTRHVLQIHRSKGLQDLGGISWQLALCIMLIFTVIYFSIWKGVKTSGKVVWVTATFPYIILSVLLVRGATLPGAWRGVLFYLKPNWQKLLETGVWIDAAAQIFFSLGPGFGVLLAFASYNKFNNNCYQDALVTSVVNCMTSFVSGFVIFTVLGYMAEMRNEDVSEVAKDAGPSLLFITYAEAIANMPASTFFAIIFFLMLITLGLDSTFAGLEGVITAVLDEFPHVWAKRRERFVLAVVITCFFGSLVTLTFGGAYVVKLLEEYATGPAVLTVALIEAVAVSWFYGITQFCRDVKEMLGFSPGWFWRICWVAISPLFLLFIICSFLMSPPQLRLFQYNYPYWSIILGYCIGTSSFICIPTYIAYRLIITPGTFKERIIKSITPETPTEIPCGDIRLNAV
Description: Following incubation, [^3H] serotonin uptake was quantified by a standard scintillation counting method.
In data set [6] the test system is time spent in centre of open field. As to the kind of experiment: Open field test. It is filed as in vivo, male C57Bl/6J mice. The conditions noted are these: for Time spent in centre during open field test, Low dose (0.3 mg/kg): 0.3 mg/kg i.p.; for Time spent in centre during open field test, Low dose (0.3 mg/kg) / Time spent in centre during open field test, High dose (3 mg/kg): 60 minutes before test; for Time spent in centre during open field test, High dose (3 mg/kg): 3 mg/kg i.p. Here is the method:
The open field test is routinely applied in order to assess a compounds ability to affect anxiety, and as such as positive result may be indicative of a compounds anxiolytic activity (Kraeuter et al., 2019).
(§2) Male C57Bl/6J mice (3-4 months), were assigned to one of three groups receiving either test compound (0.3, 3.0 mg/kg) or vehicle (0.5% (w/v) methyl cellulose) via the i.p. route, 60 minutes before experimental examination.
(§3) The test compounds used were compound identification numbers 6, 13 and 21 from Table 1.
The duration of time the mouse spent in central, periphery and corners were quantified, with duration in the central area depicted as the primary outcome measure.
(§4) Data were tested for normality and outliers were removed.

For data set [7], the system named is time spent immobile. Description: Forced swim test. It is filed as in vivo, male C57Bl/6J mice. The conditions noted are these: 60 minutes before test; for Time spent immobile during forced swim test, Low dose (0.3 mg/kg): 0.3 mg/kg i.p.; for Time spent immobile during forced swim test, High dose (3 mg/kg): 3 mg/kg i.p. Here is the method: The forced swim test is a standard model for examination of potential antidepressant-like activity and represents futility, despair, and motivation behavioural domains.
as §2, §3
The duration of time the mouse spent immobile during the forced swim test was measured.
as §4

Data set [8] has as its target human recombinant PDE-4B1 (Homo sapiens, UniProt Q07343). As to the kind of experiment: PDE4-B1 assay (Compounds of Formula I), SPA. The conditions noted are these: 30 μM; relative to Ro 20-1724. Type of data set: biochemical. The procedure:
(§5) 20 mins after addition of human recombinant PDE-4B1 (1.2 IEU) or PDE-4D2 (1.5 IEU), SPA beads were added and incubated at 22° C. for a further 30 mins. [^3H]5′AMP was quantified by a standard scintillation counting method.

The target of data set [9] is human recombinant PDE-4D2 (Homo sapiens, UniProt Q08499). Description: PDE4-D2 assay (Compounds of Formula I), SPA. The conditions noted are these: 30 μM; relative to Ro 20-1724. Type of data set: biochemical. The procedure:
as §5

Data set [10] in a line: Hepatocyte stability study. It is filed as in vitro ADME. Conditions: human hepatocytes. Here is the method:
The compounds were added at a concentration of 1 μM to human hepatocytes (0.5×10^6 cells/ml in Williams E media supplemented with 2 mM L-glutamine and 25 mM HEPES) and incubated for 0, 5, 10, 20, 40 and 60 min at 37° C. Five replicates were performed for each compound.

For data set [11], the target named is 5-HT transporter (Homo sapiens, UniProt P31645). The conditions noted are these: Harvey et al., 2011; cited from earlier work.
5-HT transporter, sequence (P31645 whole entry, species assumed): as the sequence (P31645 whole entry) above
In data set [12] the target is PDE-4B (Homo sapiens, UniProt Q07343). The conditions noted are these: Harvey et al., 2011; cited from earlier work.
PDE-4B, sequence (Q07343 whole entry, species assumed): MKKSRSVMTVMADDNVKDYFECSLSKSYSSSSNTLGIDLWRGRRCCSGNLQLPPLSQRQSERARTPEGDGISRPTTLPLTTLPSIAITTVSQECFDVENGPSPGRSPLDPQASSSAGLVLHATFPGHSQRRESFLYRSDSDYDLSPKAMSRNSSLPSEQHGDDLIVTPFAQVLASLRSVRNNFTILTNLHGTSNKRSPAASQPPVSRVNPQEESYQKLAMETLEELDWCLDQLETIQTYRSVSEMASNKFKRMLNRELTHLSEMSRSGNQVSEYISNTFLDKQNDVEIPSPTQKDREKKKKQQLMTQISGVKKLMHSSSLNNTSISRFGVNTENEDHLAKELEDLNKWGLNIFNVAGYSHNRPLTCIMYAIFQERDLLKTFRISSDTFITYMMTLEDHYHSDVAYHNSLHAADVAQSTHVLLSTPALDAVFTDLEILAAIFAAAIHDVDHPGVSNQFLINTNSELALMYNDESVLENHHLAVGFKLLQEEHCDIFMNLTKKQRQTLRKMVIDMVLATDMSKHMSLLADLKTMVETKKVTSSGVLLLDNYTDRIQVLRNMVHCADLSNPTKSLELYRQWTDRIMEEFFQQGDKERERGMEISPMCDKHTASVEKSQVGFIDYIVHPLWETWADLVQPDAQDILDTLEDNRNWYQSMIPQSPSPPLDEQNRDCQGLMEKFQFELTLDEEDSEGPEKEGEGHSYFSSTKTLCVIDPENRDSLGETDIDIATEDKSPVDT
The conditions of data set [13]: naturally occurring; cited from earlier work.
Where [14] appears, read: medium (1.0 μM) and high (10.0 μM) concentration.

Molecules are shown by their SMILES.

human recombinant PDE-4D2, sequence (Q08499 303-809): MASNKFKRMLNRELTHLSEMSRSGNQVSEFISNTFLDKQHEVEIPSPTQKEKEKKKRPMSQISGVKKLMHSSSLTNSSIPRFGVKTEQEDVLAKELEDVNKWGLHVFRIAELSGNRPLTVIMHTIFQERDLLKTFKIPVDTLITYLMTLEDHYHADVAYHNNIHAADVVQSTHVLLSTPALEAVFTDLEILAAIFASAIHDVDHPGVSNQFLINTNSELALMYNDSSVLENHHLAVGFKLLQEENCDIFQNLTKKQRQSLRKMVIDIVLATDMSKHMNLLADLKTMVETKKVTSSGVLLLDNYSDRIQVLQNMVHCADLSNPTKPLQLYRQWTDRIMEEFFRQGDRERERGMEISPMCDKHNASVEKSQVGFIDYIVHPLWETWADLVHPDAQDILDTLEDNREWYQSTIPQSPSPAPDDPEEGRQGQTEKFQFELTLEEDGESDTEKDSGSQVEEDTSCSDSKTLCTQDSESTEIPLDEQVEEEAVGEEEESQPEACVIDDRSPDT
human recombinant PDE-4B1, sequence (Q07343 whole entry): as the sequence (Q07343 whole entry, species assumed) above

`COc1ccc([C@@]23CCC(=O)C[C@@H]2N(C)CC3)cc1OC1CCCC1` [Compound 11]: in [1], the total exposure AUC(0-inf) (in general, total exposure, with the tail of the curve extrapolated) stood at 1040 ng·h/mL; the Cmax (in general, the highest concentration seen after dosing) came to 796 ng/mL; the Tmax – broadly, the time at which the peak concentration occurs – came to 15 min; the half-life was 56.4 min. The “Inhibition of TNF-α release compared to vehicle (significance)” value in data set [2] (all concentrations) is “inhibit TNF-α release at a statistically significant level”. In addition, the “Inhibition of IL-10 (significance)” value in [3] is “statistically significantly inhibited”. In data set [4], the “Inhibition of IL-β (significance)” value is listed as “statistically significantly inhibited”. Also, the concentration for half-maximal inhibition (IC50) (in general, the concentration needed to halve the response being measured) in data set [5] was 800 nM.
`CCOc1cc([C@@]23CCC(=O)C[C@@H]2N(C)CC3)ccc1OC` [Compound 6]: in data set [1], the total exposure AUC(0-inf) is 1960 ng·h/mL, the highest concentration (Cmax) was determined as 2610 ng/mL, the Tmax is 15 min and the half-life was 33.6 min. Besides, in data set [6], the “Time spent in centre during open field test, Low dose (0.3 mg/kg)” value worked out at 9.4 s and the “Time spent in centre during open field test, High dose (3 mg/kg)” value is reported as 8.6 s. In data set [7], the “Time spent immobile during forced swim test, Low dose (0.3 mg/kg)” value amounted to 116 s and the “Time spent immobile during forced swim test, High dose (3 mg/kg)” value came out at 88 s. In [5], this compound registered a 50% inhibitory concentration (IC50) of 2 nM.
Take `CCCCOc1cc([C@@]23CCC(=O)C[C@@H]2N(C)CC3)ccc1OC` [Compound 2]: the “Inhibition of TNF-α release compared to vehicle (significance)” value in data set [2] (setting [14]) is “inhibited TNF-α release at a statistically significant level”. Also, the “Inhibition of IL-10 (significance)” value in data set [3] is “statistically significantly inhibited”. The 50% inhibitory concentration (IC50) in data set [5] came to 30 nM.
On to `C=CCOc1cc([C@@]23CCC(=O)C[C@@H]2N(C)CC3)ccc1OC` [Compound 13], for which, in data set [1], the AUC(0-inf) stood at 2100 ng·h/mL, the Cmax was determined as 2330 ng/mL, the Tmax stood at 15 min and the half-life was 40.2 min. For the same compound, in [6], the “Time spent in centre during open field test, Low dose (0.3 mg/kg)” value was determined as 10.6 s and the “Time spent in centre during open field test, High dose (3 mg/kg)” value is given as 8.8 s. Moreover, in data set [7], the “Time spent immobile during forced swim test, Low dose (0.3 mg/kg)” value turned out to be 119 s and the “Time spent immobile during forced swim test, High dose (3 mg/kg)” value was 138 s. For the same compound, in data set [5], inhibition was half-maximal at 20 nM (IC50) and the inhibition (as a rule, the change of the read-out against control, counted positive when it falls) is 100%.
`[2H]C([2H])([2H])Oc1cc([C@@]23CCC(=O)C[C@@H]2N(C)CC3)ccc1OC` [Compound 5]: the inhibition at 30 µM worked out at 88% in data set [8] and 94% in data set [9]. Besides, in [10], the “half-life compared with non-deuterated mesembrine” value is on record as “shorter half-life”. For the same compound, in [10] (1 μM, 37° C., read-out: Qualified Clint), the hepatocyte CLint at 1 μM is 21.1 µL/min/1e6 cells. Moreover, the half-life at 1 μM in data set [10] (1 μM, 37° C., read-out: Qualified t1/2) stood at 65.8 min. In addition, the inhibition in data set [5] came out at 98%.
Take `CCOc1ccc([C@@]23CCC(=O)C[C@@H]2N(C)CC3)cc1OC1CCCC1` [Compound 27]: in [1], the AUC(0-inf) worked out at 1400 ng·h/mL, the concentration peaked (Cmax) at 831 ng/mL, the time to peak (Tmax) worked out at 15 min and the half-life was 58.2 min. Moreover, in data set [2] (setting [14]), the “Inhibition of TNF-α release compared to vehicle (significance)” value was “inhibited TNF-α release at a statistically significant level”. Further, in [5], the midpoint of inhibition, the IC50, lay at 400 nM and the inhibition came to 96%.
Turning to `CCOc1ccc([C@@]23CCC(=O)C[C@@H]2N(C)CC3)cc1OCC` [Compound 21], in data set [1], the total exposure AUC(0-inf) is 1830 ng·h/mL, the peak level (Cmax) was 2430 ng/mL, the time of peak concentration (Tmax) worked out at 15 min and the half-life was 34.2 min. For the same compound, in [6], the “Time spent in centre during open field test, Low dose (0.3 mg/kg)” value was 13.7 s and the “Time spent in centre during open field test, High dose (3 mg/kg)” value is listed as 9.8 s. The “Time spent in the centre compared to vehicle (significance)” value in data set [6] (low dose of 0.3 mg/kg) is “statistically significant increase”. In data set [7], the “Time spent immobile during forced swim test, Low dose (0.3 mg/kg)” value is 105 s and the “Time spent immobile during forced swim test, High dose (3 mg/kg)” value is given as 118 s. In data set [5], inhibition was half-maximal at 30 nM (IC50) and the inhibition is 91%.
On to `COc1ccc([C@@]23CCC(=O)C[C@@H]2N(C)CC3)cc1OCC1CC1` [Compound 1], for which the “Inhibition of TNF-α release compared to vehicle (significance)” value in [2] (setting [14]) is reported as “inhibited TNF-α release at a statistically significant level”. Further, the “Inhibition of IL-10 (significance)” value in [3] was “statistically significantly inhibited”. In [4], the “Inhibition of IL-β (significance)” value was “statistically significantly inhibited”.
For `COc1ccc([C@@]23C=C[C@@H](O)C[C@@H]2N(C)CC3)cc1OC` [mesembrenol], the “activity in 5-HT transporter binding assay” value in data set [11] is given as “potently active”. For the same compound, the “activity against PDE-4B” value in [12] is recorded as “potently active”.
On to `COc1ccc([C@@]23CCC(=O)C[C@@H]2N(C)CC3)cc1OC` [Mesembrine, mesembrine, reference compound], for which, in data set [10] (1 μM, 37° C.), the “Qualified Clint” value stood at 16.3 μl/min/10^6 cells and the “Qualified t1/2” value turned out to be 84.8. In addition, the solubility in water result in data set [13] is on record as “scarcely soluble in water”.

(Values after patent US20250091992A1, “NOVEL COMPOUNDS AND USES THEREOF” (KANNA HEALTH LIMITED, priority 2021, published 2025).)
